From patent US8748415B2 (priority 2011, dated 2014) come the findings set out here.

Some results are limits rather than exact numbers.

For the first assay, the system named is recombinant NL4-3 virus (Renilla luciferase in nef, Gag P373S). Description: HIV cell culture assay (luciferase activity in MT-2 cells infected with NLRluc recombinant virus). Type of assay: cell-based. As to conditions: NL43. The essentials:
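MT-2 cells in RPMI/10% FBS were infected with recombinant NL4-3 (NLRluc), produced by 293T transfection and titered in MT-2 by luciferase. Serial inhibitor dilutions were present throughout a 4–5 day infection. Antiviral activity was quantified as Renilla luciferase signal via a modified Dual Luciferase read.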
In general, EC50 refers to the concentration at which the effect is half-maximal. `C=C(C)[C@@H]1CC[C@]2(CN3CC3)CC[C@]3(C)[C@H](CC[C@@H]4[C@@]5(C)CC=C(c6ccc(C(=O)O)cc6)C(C)(C)[C@@H]5CC[C@]43C)[C@@H]12` [Example 177, 4-((1R,3aS,5aR,5bR,7aR,11aS,11bR,13aR,13bR)-3a-(aziridin-1-ylmethyl)-5a,5b,8,8,11a-pentamethyl-1-(prop-1-en-2-yl)-2,3,3a,4,5,5a,5b,6,7,7a,8,11,11a,11b,12,13,13a,13b-octadecahydro-1H-cyclopenta[a]chrysen-9-yl)benzoic acid]: the EC50 was under 100 nM.

Staying with this assay, now noted: NL43, MT-2 cells infected 4-5 days with NLRluc recombinant virus, class symbol.
For `C=C(C)[C@@H]1CC[C@]2(CNC(=O)CCC(=O)O)CC[C@]3(C)[C@H](CC[C@@H]4[C@@]5(C)CC=C(c6ccc(C(=O)O)cc6)C(C)(C)[C@@H]5CC[C@]43C)[C@@H]12` [Example 169, 4-((1R,3aS,5aR,5bR,7aR,11aS,11bR,13aR,13bR)-3a-((3-carboxypropanamido)methyl)-5a,5b,8,8,11a-pentamethyl-1-(prop-1-en-2-yl)-2,3,3a,4,5,5a,5b,6,7,7a,8,11,11a,11b,12,13,13a,13b-octadecahydro-1H-cyclopenta[a]chrysen-9-yl)benzoic acid], the EC50 is under 100 nM. Turning to `C=C(C)[C@@H]1CC[C@]2(CNC(=O)CCC(=O)OC)CC[C@]3(C)[C@H](CC[C@@H]4[C@@]5(C)CC=C(c6ccc(C(=O)O)cc6)C(C)(C)[C@@H]5CC[C@]43C)[C@@H]12` [Example 170, 4-((1R,3aS,5aR,5bR,7aR,11aS,11bR,13aR,13bR)-3a-((4-methoxy-4-oxobutanamido)methyl)-5a,5b,8,8,11a-pentamethyl-1-(prop-1-en-2-yl)-2,3,3a,4,5,5a,5b,6,7,7a,8,11,11a,11b,12,13,13a,13b-octadecahydro-1H-cyclopenta[a]chrysen-9-yl)benzoic acid], the EC50 is under 100 nM. `C=C(C)[C@@H]1CC[C@]2(CNCCCN3CCS(=O)(=O)CC3)CC[C@]3(C)[C@H](CC[C@@H]4[C@@]5(C)CC=C(c6ccc(C(=O)NS(=O)(=O)N(C)C)cc6)C(C)(C)[C@@H]5CC[C@]43C)[C@@H]12` [Example 171, N-(dimethylsulfamoyl)-4-((1R,3aS,5aR,5bR,7aR,11aS,11bR,13aR,13bR)-3a-(((3-(1,1-dioxido-4-thiomorpholinyl)propyl)amino)methyl)-1-isopropenyl-5a,5b,8,8,11a-pentamethyl-2,3,3a,4,5,5a,5b,6,7,7a,8,11,11a,11b,12,13,13a,13b-octadecahydro-1H-cyclopenta[a]chrysen-9-yl)benzamide]: the concentration giving a half-maximal response (EC50) was under 100 nM. Still for that read-out and setting: under `C=C(C)[C@@H]1CC[C@]2(CNCCCN3CCS(=O)(=O)CC3)CC[C@]3(C)[C@H](CC[C@@H]4[C@@]5(C)CC=C(c6ccc(C(=O)NS(=O)(=O)C7CC7)cc6)C(C)(C)[C@@H]5CC[C@]43C)[C@@H]12` [Example 172, benzamide, N-(cyclopropylsulfonyl)-4-((1R,3aS,5aR,5bR,7aR,11aS,11bR,13aR,13bR)-3a-(((3-(1,1-dioxido-4-thiomorpholinyl)propyl)amino)methyl)-1-isopropenyl-5a,5b,8,8,11a-pentamethyl-2,3,3a,4,5,5a,5b,6,7,7a,8,11,11a,11b,12,13,13a,13b-octadecahydro-1H-cyclopenta[a]chrysen-9-yl)benzamide] stands under 100 nM. With `C=C(C)[C@@H]1CC[C@]2(CN(CCCN3CCS(=O)(=O)CC3)C(=O)CCC(=O)NS(=O)(=O)C3CC3)CC[C@]3(C)[C@H](CC[C@@H]4[C@@]5(C)CC=C(c6ccc(C(=O)O)cc6)C(C)(C)[C@@H]5CC[C@]43C)[C@@H]12` [Example 173, 4-((1R,3aS,5aR,5bR,7aR,11aS,11bR,13aR,13bR)-3a-(((4-((cyclopropylsulfonyl)amino)-4-oxobutanoyl)(3-(1,1-dioxido-4-thiomorpholinyl)propyl)amino)methyl)-1-isopropenyl-5a,5b,8,8,11a-pentamethyl-2,3,3a,4,5,5a,5b,6,7,7a,8,11,11a,11b,12,13,13a,13b-octadecahydro-1H-cyclopenta[a]chrysen-9-yl)benzoic acid], the EC50 is under 100 nM. Still for that read-out and setting: the same measure for `C=C(C)[C@@H]1CC[C@]2(CN)CC[C@]3(C)[C@H](CC[C@@H]4[C@@]5(C)CC=C(c6ccc(C(=O)O)cc6)C(C)(C)[C@@H]5CC[C@]43C)[C@@H]12` [Example 174, 4-((1R,3aS,5aR,5bR,7aR,11aS,11bR,13aR,13bR)-3a-(aminomethyl)-5a,5b,8,8,11a-pentamethyl-1-(prop-1-en-2-yl)-2,3,3a,4,5,5a,5b,6,7,7a,8,11,11a,11b,12,13,13a,13b-octadecahydro-1H-cyclopenta[a]chrysen-9-yl)benzoic acid]: under 100 nM.

For `C=C(C)[C@@H]1CC[C@]2(CNC(C)C)CC[C@]3(C)[C@H](CC[C@@H]4[C@@]5(C)CC=C(c6ccc(C(=O)O)cc6)C(C)(C)[C@@H]5CC[C@]43C)[C@@H]12` [Example 175, 4-((1R,3aS,5aR,5bR,7aR,11aS,11bR,13aR,13bR)-3a-((isopropylamino)methyl)-5a,5b,8,8,11a-pentamethyl-1-(prop-1-en-2-yl)-2,3,3a,4,5,5a,5b,6,7,7a,8,11,11a,11b,12,13,13a,13b-octadecahydro-1H-cyclopenta[a]chrysen-9-yl)benzoic acid], the EC50 is under 100 nM. Take `C=C(C)[C@@H]1CC[C@]2(CNCCO)CC[C@]3(C)[C@H](CC[C@@H]4[C@@]5(C)CC=C(c6ccc(C(=O)O)cc6)C(C)(C)[C@@H]5CC[C@]43C)[C@@H]12` [Example 178, 4-((1R,3aS,5aR,5bR,7aR,11aS,11bR,13aR,13bR)-3a-((2-hydroxyethylamino)methyl)-5a,5b,8,8,11a-pentamethyl-1-(prop-1-en-2-yl)-2,3,3a,4,5,5a,5b,6,7,7a,8,11,11a,11b,12,13,13a,13b-octadecahydro-1H-cyclopenta[a]chrysen-9-yl)benzoic acid]: the EC50 is under 100 nM. On the same count and under the same terms, under `C=C(C)[C@@H]1CC[C@]2(CNCCN3CCN(S(C)(=O)=O)CC3)CC[C@]3(C)[C@H](CC[C@@H]4[C@@]5(C)CC=C(c6ccc(C(=O)O)cc6)C(C)(C)[C@@H]5CC[C@]43C)[C@@H]12` [Example 179, 4-((1R,3aS,5aR,5bR,7aR,11aS,11bR,13aR,13bR)-5a,5b,8,8,11a-pentamethyl-3a-((2-(4-(methylsulfonyl)piperazin-1-yl)ethylamino)methyl)-1-(prop-1-en-2-yl)-2,3,3a,4,5,5a,5b,6,7,7a,8,11,11a,11b,12,13,13a,13b-octadecahydro-1H-cyclopenta[a]chrysen-9-yl)benzoic acid] stands under 100 nM; under `C=C(C)[C@@H]1CC[C@]2(CNCCOC)CC[C@]3(C)[C@H](CC[C@@H]4[C@@]5(C)CC=C(c6ccc(C(=O)O)cc6)C(C)(C)[C@@H]5CC[C@]43C)[C@@H]12` [Example 180, 4-((1R,3aS,5aR,5bR,7aR,11aS,11bR,13aR,13bR)-3a-((2-methoxyethylamino)methyl)-5a,5b,8,8,11a-pentamethyl-1-(prop-1-en-2-yl)-2,3,3a,4,5,5a,5b,6,7,7a,8,11,11a,11b,12,13,13a,13b-octadecahydro-1H-cyclopenta[a]chrysen-9-yl)benzoic acid], under 100 nM.

Consider `C=C(C)[C@@H]1CC[C@]2(CN3CCOC3=O)CC[C@]3(C)[C@H](CC[C@@H]4[C@@]5(C)CC=C(c6ccc(C(=O)O)cc6)C(C)(C)[C@@H]5CC[C@]43C)[C@@H]12` [Example 182, 4-((1R,3aS,5aR,5bR,7aR,11aS,11bR,13aR,13bR)-5a,5b,8,8,11a-pentamethyl-3a-((2-oxooxazolidin-3-yl)methyl)-1-(prop-1-en-2-yl)-2,3,3a,4,5,5a,5b,6,7,7a,8,11,11a,11b,12,13,13a,13b-octadecahydro-1H-cyclopenta[a]chrysen-9-yl)benzoic acid], for which the EC50 is under 100 nM.

Still in this assay, the particulars now being: NL43, MT-2 cells infected 4-5 days with NLRluc recombinant virus, numeric value.
With `C=C(C)[C@@H]1CC[C@]2(CNCCC(=O)OC)CC[C@]3(C)[C@H](CC[C@@H]4[C@@]5(C)CC=C(c6ccc(C(=O)O)cc6)C(C)(C)[C@@H]5CC[C@]43C)[C@@H]12` [Example 176, 4-((1R,3aS,5aR,5bR,7aR,11aS,11bR,13aR,13bR)-3a-((3-methoxy-3-oxopropylamino)methyl)-5a,5b,8,8,11a-pentamethyl-1-(prop-1-en-2-yl)-2,3,3a,4,5,5a,5b,6,7,7a,8,11,11a,11b,12,13,13a,13b-octadecahydro-1H-cyclopenta[a]chrysen-9-yl)benzoic acid], the EC50 amounted to 14 nM.

For `C=C(C)[C@@H]1CC[C@]2(CNCCN3CCC(CO)CC3)CC[C@]3(C)[C@H](CC[C@@H]4[C@@]5(C)CC=C(c6ccc(C(=O)O)cc6)C(C)(C)[C@@H]5CC[C@]43C)[C@@H]12` [Example 181, 4-((1R,3aS,5aR,5bR,7aR,11aS,11bR,13aR,13bR)-3a-((2-(4-(hydroxymethyl)piperidin-1-yl)ethylamino)methyl)-5a,5b,8,8,11a-pentamethyl-1-(prop-1-en-2-yl)-2,3,3a,4,5,5a,5b,6,7,7a,8,11,11a,11b,12,13,13a,13b-octadecahydro-1H-cyclopenta[a]chrysen-9-yl)benzoic acid], the EC50 turned out to be 1 nM.
